Laboratory results: patent US10519108B2, “Inhibitors of retinaldehyde dehydrogenases and methods of use” (The Board of Regents of the University of Oklahoma, priority 2015, dated 2019)

What was measured:
[1] = biological target: T1, aldehyde dehydrogenase 2 (ALDH2) (Homo sapiens, UniProt P05091); assay: ALDH2 activity by NADH synthesis, absorbance at 340 nm; type: biochemical
T1 sequence (P05091 18-517): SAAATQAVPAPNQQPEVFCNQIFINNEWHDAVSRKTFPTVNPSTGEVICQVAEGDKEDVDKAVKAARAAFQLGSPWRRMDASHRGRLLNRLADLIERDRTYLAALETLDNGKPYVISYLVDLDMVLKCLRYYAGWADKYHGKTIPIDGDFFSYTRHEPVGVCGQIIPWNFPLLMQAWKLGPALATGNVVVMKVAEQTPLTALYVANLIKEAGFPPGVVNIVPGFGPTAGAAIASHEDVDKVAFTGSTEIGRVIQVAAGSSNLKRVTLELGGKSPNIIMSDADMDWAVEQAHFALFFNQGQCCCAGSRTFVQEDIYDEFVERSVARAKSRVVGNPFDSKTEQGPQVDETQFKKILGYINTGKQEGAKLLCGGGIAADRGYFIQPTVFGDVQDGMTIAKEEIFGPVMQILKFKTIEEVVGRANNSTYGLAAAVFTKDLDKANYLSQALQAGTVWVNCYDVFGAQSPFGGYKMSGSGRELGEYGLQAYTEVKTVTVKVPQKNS

spermatogenesis = conditions: cited from earlier work
[2] = biological target: T2, retinaldehyde dehydrogenase 1 (RALDH1) (Homo sapiens, UniProt P00352); assay: RALDH1 activity by NADH synthesis, fluorescence-based NADH sensor; type: biochemical; conditions: in the presence of DAR
T2 sequence (P00352 1-501): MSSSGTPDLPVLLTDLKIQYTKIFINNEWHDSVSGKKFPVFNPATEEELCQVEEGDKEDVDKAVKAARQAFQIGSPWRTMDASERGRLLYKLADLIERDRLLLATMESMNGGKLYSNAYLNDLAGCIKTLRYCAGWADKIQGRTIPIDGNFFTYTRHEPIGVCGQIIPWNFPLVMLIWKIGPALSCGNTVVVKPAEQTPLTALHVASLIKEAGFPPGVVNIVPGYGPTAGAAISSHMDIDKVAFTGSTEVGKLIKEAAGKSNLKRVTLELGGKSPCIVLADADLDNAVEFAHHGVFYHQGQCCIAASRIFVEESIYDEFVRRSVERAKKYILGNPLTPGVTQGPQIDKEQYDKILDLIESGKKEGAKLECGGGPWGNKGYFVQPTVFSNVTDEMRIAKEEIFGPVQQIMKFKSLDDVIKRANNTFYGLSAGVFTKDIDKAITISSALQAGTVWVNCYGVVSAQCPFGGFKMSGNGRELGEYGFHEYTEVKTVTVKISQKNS

RALDH2 = biological target: T3, RALDH2 (Homo sapiens, UniProt O94788); assay: RALDH2 activity by NADH synthesis, fluorescence-based NADH sensor; type: biochemical
T3 sequence (O94788 1-518): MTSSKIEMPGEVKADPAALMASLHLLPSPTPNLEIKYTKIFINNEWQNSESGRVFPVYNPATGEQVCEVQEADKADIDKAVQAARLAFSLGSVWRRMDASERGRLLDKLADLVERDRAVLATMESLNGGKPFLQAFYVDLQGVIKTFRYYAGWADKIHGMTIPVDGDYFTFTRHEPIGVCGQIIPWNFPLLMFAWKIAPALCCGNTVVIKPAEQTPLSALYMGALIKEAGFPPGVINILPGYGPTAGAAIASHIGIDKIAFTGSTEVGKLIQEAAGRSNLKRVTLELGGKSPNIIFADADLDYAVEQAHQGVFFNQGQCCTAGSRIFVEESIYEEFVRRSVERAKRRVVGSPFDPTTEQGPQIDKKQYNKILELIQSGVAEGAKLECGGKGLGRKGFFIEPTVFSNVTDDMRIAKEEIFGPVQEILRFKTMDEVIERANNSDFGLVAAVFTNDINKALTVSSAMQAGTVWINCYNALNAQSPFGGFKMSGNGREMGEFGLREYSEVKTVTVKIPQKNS

RALDH3 = biological target: T4, RALDH3 (Homo sapiens, UniProt P47895); assay: RALDH3 activity by NADH synthesis, fluorescence-based NADH sensor; type: biochemical; conditions: in the presence of DAR
T4 sequence (P47895 1-512): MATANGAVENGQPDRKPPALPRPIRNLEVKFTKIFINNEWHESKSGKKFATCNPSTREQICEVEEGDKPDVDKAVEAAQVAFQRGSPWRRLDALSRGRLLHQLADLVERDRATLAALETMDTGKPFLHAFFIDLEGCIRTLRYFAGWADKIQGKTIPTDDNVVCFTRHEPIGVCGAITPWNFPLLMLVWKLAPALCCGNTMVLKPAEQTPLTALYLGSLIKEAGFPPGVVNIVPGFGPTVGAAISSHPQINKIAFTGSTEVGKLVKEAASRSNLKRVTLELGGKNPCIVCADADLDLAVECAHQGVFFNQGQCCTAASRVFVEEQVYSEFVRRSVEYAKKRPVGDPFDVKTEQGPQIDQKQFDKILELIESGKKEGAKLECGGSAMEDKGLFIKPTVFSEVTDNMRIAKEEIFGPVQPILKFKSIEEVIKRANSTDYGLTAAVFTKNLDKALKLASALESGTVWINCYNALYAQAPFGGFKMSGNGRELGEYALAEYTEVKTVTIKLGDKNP

RALDH = RALDH activity in recovering choroid tissue homogenates, atRA synthesis by HPLC; type: biochemical; conditions: choroid cytosol fractions, DAR 5-25 μM, NAD 4 mM, all-trans-retinaldehyde 25 μM, 37° C. 30 min
Description: RALDH activity was assessed in choroid tissue homogenates in the presence of DAR (5-25 μM), or vehicle (EtOH) by measuring all-trans-retinoic acid (atRA) synthesis. Choroid cytosol fractions were incubated in the presence of cofactor NAD (4 mM) and all-trans-retinaldehyde (25 μM) at 37° C. for 30 min. Following incubation, retinoids were extracted and quantified using HPLC.

| SMILES | effect on ALDH2 assessed by NADH synthesis [1] | inhibition of spermatogenesis (spermatogenesis; human males) | reactions in patients who consumed alcohol (spermatogenesis; human, alcohol consumed while taking compound, due to inhibition of ALDH2) | activity of RALDH1 assessed by NADH synthesis [2] | IC50 (RALDH2; NADH synthesis, 95% C.I.=41.0-66.4 nM) [nM] | activity of RALDH2 assessed by NADH synthesis (RALDH2; in the presence of DAR, fluorescence-based NADH sensor) | activity of RALDH3 assessed by NADH synthesis (RALDH3) | retinoic acid (atRA) synthesis by RALDH (RALDH) |
| --- | --- | --- | --- | --- | --- | --- | --- | --- |
| O=C(NCCCCCCCCNC(=O)C(Cl)Cl)C(Cl)Cl [WIN-18446] | non-specific ALDH2 inhibitor | potent, reversible inhibitor of spermatogenesis | violent “disulfiram” reactions | – | – | – | – | – |
| CC1=C(/C=C/C(C)=C/C=C/C(C)=C/C(=O)C(Cl)Cl)C(C)(C)CCC1 [DAR, (3E,5E,7E,9E)-1,1-dichloro-4,8-dimethyl-10-(2,6,6-trimethylcyclohex-1-en-1-yl)deca-3,5,7,9-tetraen-2-one] | does not significantly inhibit | – | – | effectively inhibits | 52.2 | effectively inhibits | effectively inhibits | significantly inhibited |
